Read-outs that look alike come from different tables or passages of the source. Marks after values point to notes of the source that are not given here.
Columns and labels:
NCI-H295R cells = assay: H295R steroidogenesis assay; format: cell-based, human; details: for Effect on androgen (steroid) synthesis, in words: H295R steroidogenesis assay
Experimental: To capture effects on steroid hormone synthesis (testosterone and androstendione), we tested all 12 pesticides in the H295R assay with the human adrenocortical carcinoma cell line NCI-H295R (American Type Culture Collection no. CRL-2,128, LGC Standards), as previously described ([Hecker et al. 2011]; [Rosenmai et al. 2013]). In brief, cells were cultured in DMEM/F-12 +glutamine medium with HEPES buffer (Invitrogen) containing 1% insulin-transferrin-sodium selenite plus Premix (VWR) and 2.5% Nu-Serum (BD Bioscience) at 37°C in a 5% CO2 atmosphere. The day before exposure, cells were seeded 300,000 per well in clear 24-well plates (VWR Corning). Cells were exposed for 48 h to control (Forskolin: 1μM , 10μM (Sigma-Aldrich); and Prochloraz: 0.3μM , 3μM (VWR-Bie and Berntsen) or test compounds. The vehicle (DMSO) concentration was kept constant in all wells (0.1%). After 48 h, the exposure culture medium was removed and stored at –80°C until the levels of 10 steroid hormones (testosterone, androstenedione, aldosterone, corticosterone, cortisol, dehydroepiandrosterone, 17α-hydroxyprogesterone , progesterone, estrone, and 17β-estradiol ) were quantified using the high-performance liquid chromatography–tandem mass spectrometry method described elsewhere ([Mortensen and Pedersen 2007]). Minor modifications were made to accommodate a smaller sample size and to include more hormones. The liquid chromatography system (Agilent 1100) was equipped with an Atlantis C18 column ( 2.1×150mm , 3μm ) (Waters Corp.) maintained at 40°C. The sample injection volume was 50μL . […] The mass spectrometer was a Quattro Ultima triple quadrupole instrument (Waters Corp.). […] Each pesticide was tested in 2-fold serial dilutions at concentrations between 0.8 and 50μM in three independent experiments, and hormone levels were normalized to the solvent controls containing 0.1% DMSO. Cell viability was evaluated by using the 3-(4,5-dimethylthiazol-2-yl)-2,5- diphenyltetrazolium bromide (MTT) assay (Sigma) as previously described ([Hecker et al. 2011]; [Rosenmai et al. 2013]). Fluorescence was measured (excitation 560 nm , emission 590 nm ) using a Wallac Victor2 1420 multilabel counter (PerkinElmer).

[1] = PBK model first-order kinetic parameters fitted to in vivo ADME data; design: species or system rat; details: PBK model parameter; for Metabolism rate in liver, Total (L/h) KMetab: metabolic clearance
[2] = design: method as in U.S. EPA 2012; details: EPI Suite, experimental preferred over modeled; ref U.S. EPA 2012; cited from earlier work
[3] = cited from earlier work
Sprague-Dawley rats = assay: In vivo Study 2 (linuron), reproductive/developmental toxicity, AGD; details: for AGDI mean: Study 2, male pups; for AGDI reduction (%): male offspring, normalized AGDI scale
pregnant dams and pups = details: ref EFSA's Draft Assessment Reports (DARs); cited from earlier work

| SMILES | Effect on androgen (steroid) synthesis, in words (NCI-H295R cells) | IC50 (NCI-H295R cells; Homo sapiens, NCI-H295R, 48 h, read-out: Testosterone inhibition (IC50, μM)) | Fecal excretion rate from gut (L/h) KFeces [1] | Portal GI absorption rate into liver (L/h) KAS [1] | Urine excretion rate from kidney (L/h) KUrine [1] | Metabolism rate in liver, Total (L/h) KMetab [1] | log Kow [2] | Unbound plasma fraction (%) ([3]; ref Wetmore et al. (2012)) | AGDI ED10 (Sprague-Dawley rats; Study 2, dose causing 10% AGDI reduction, regression) | AGDI mean (Sprague-Dawley rats; dose 25 mg/kg BW (control 1.00)) | AGDI mean (Sprague-Dawley rats; dose 50 mg/kg BW (control 1.00)) | Maternal toxicity (Sprague-Dawley rats; highest dose, 75 mg/kg per day) | AGDI reduction (%) (Sprague-Dawley rats; dose 25 mg/kg BW per day) | AGDI reduction (%) (Sprague-Dawley rats; dose 50 mg/kg BW per day) | IC20 (NCI-H295R cells; Homo sapiens, NCI-H295R, read-out: Testosterone inhibition (IC20 µM)) | Unbound plasma fraction (%) ([3]; plasma) | Critical toxicity (pregnant dams and pups) | LOAEL (mg/kg bw) (pregnant dams and pups) | NOAEL (mg/kg bw) (pregnant dams and pups) |
| --- | --- | --- | --- | --- | --- | --- | --- | --- | --- | --- | --- | --- | --- | --- | --- | --- | --- | --- | --- |
| CON(C)C(=O)Nc1ccc(Cl)c(Cl)c1 [Linuron, linuron, reference compound] | inhibited the synthesis of androgens | 27 µM | 0.08 L/h | 0.5 L/h | 0.05 L/h | 1.0 L/h | 3.20 | 10.5^g % | 27 mg/kg BW | 0.91 | 0.72 | Maternal toxicity was observed | 9% | 28% | – | – | – | – | – |
| Cc1cc(C)nc(Nc2ccccc2)n1 [Pyrimethanil, pyrimethanil] | no effect on any measured androgen | – | 0.1 L/h | 1 L/h | 0.01 L/h | 0.8 L/h | 2.84 | – | – | – | – | – | – | – | > 50 µM | 2.0^g % | Reduced maternal and pup BW | 294 mg/kg bw | 23 mg/kg bw |

Source: PMC7687371, “Quantitative in Vitro to in Vivo Extrapolation (QIVIVE) for Predicting Reduced Anogenital Distance Produced by Anti-Androgenic Pesticides in a Rodent Model for Male Reproductive Disorders” (Environmental Health Perspectives, 2020)
